The record followed here is US10004701B2, “Methods and compositions for treating infection” (UNIVERSITY OF ROCHESTER, priority 2012, dated 2018).

Holding throughout (assay): AK assay 384-well format, Prestwick library screening
The test system of test [1] is E. coli. It is filed as cell-based, Escherichia coli. The settings on record: for fold induction at 50 µM: Escherichia coli, 3 h.
In test [2] the test system is K. pneumoniae. Format: cell-based, Klebsiella pneumoniae. The settings on record: for fold induction at 50 µM: Klebsiella pneumoniae, 3 h.
Test [3] deals with A. baumannii strain 98-37-09. It is filed as cell-based, Acinetobacter baumannii. The settings on record: for fold induction at 50 µM: Acinetobacter baumannii, 983709, 3 h.
For test [4], the system named is E. cloacae. It is filed as cell-based, Enterobacter cloacae. The settings on record: for fold induction at 50 µM: Enterobacter cloacae, 3 h.
Test [5] deals with E. faecium. Format: cell-based, Enterococcus faecium. The settings on record: for fold induction at 50 µM: Enterococcus faecium, 3 h.
Test [6] has as its system S. aureus strain USA300-0114. It is filed as cell-based, Staphylococcus aureus. The settings on record: for fold induction at 50 µM: Staphylococcus aureus, USA300, 3 h.
Test [7] concerns P. aeruginosa. Format: cell-based, Pseudomonas aeruginosa. The settings on record: for fold induction at 50 µM: Pseudomonas aeruginosa, 3 h.
Where [8] appears, read: planktonic E. coli, 50 μM final drug concentration, cutoff for positive-scoring molecules 3-fold increase, read-out: AK-based Prestwick Library Screening Results, E. coli (increase in extracellular AK activity).
[9] abbreviates: planktonic K. pneumoniae, 50 μM final drug concentration, cutoff for positive-scoring molecules 3-fold increase, read-out: AK-based Prestwick Library Screening Results, K. pneumoniae (increase in extracellular AK activity).
Where [10] appears, read: planktonic A. baumannii, 50 μM final drug concentration, cutoff for positive-scoring molecules 3-fold increase, read-out: AK-based Prestwick Library Screening Results, A. baumannii (increase in extracellular AK activity).
Setting [11] is: planktonic E. cloacae, 50 μM final drug concentration, cutoff for positive-scoring molecules 3-fold increase, read-out: AK-based Prestwick Library Screening Results, E. cloacae (increase in extracellular AK activity).
Where [12] appears, read: planktonic E. faecium, 50 μM final drug concentration, cutoff for positive-scoring molecules 3-fold increase, read-out: AK-based Prestwick Library Screening Results, E. faecium (increase in extracellular AK activity).
Where [13] appears, read: planktonic S. aureus, 50 μM final drug concentration, cutoff for positive-scoring molecules 3-fold increase, read-out: AK-based Prestwick Library Screening Results, S. aureus (increase in extracellular AK activity).
Where [14] appears, read: planktonic P. aeruginosa, 50 μM final drug concentration, cutoff for positive-scoring molecules 3-fold increase, read-out: AK-based Prestwick Library Screening Results, P. aeruginosa (increase in extracellular AK activity).
Where [15] appears, read: planktonic E. coli, 50 μM final drug concentration, 384-well, cutoff for positive-scoring molecules 3-fold increase, read-out: AK-based Prestwick Library Screening Results: E. coli (increase in extracellular AK activity).
The mark [16] stands for this setting: planktonic K. pneumoniae, 50 μM final drug concentration, 384-well, cutoff for positive-scoring molecules 3-fold increase, read-out: AK-based Prestwick Library Screening Results: K. pneumoniae (increase in extracellular AK activity).
Where [17] appears, read: planktonic A. baumannii, 50 μM final drug concentration, 384-well, cutoff for positive-scoring molecules 3-fold increase, read-out: AK-based Prestwick Library Screening Results: A. baumannii (increase in extracellular AK activity).
The mark [18] stands for this setting: planktonic E. cloacae, 50 μM final drug concentration, 384-well, cutoff for positive-scoring molecules 3-fold increase, read-out: AK-based Prestwick Library Screening Results: E. cloacae (increase in extracellular AK activity).
Setting [19] is: planktonic E. faecium, 50 μM final drug concentration, 384-well, cutoff for positive-scoring molecules 3-fold increase, read-out: AK-based Prestwick Library Screening Results: E. faecium (increase in extracellular AK activity).
[20] abbreviates: planktonic S. aureus, 50 μM final drug concentration, 384-well, cutoff for positive-scoring molecules 3-fold increase, read-out: AK-based Prestwick Library Screening Results: S. aureus (increase in extracellular AK activity).
[21] abbreviates: planktonic P. aeruginosa, 50 μM final drug concentration, 384-well, cutoff for positive-scoring molecules 3-fold increase, read-out: AK-based Prestwick Library Screening Results: P. aeruginosa (increase in extracellular AK activity).
The mark [22] stands for this setting: 50 μM final drug concentration, cutoff for positive-scoring molecules 3-fold increase.

Counter-ions that a name gives are not always drawn. Like-named read-outs stand apart in the source and are kept apart here.

`CN(C)C(=O)Oc1cc(OC(=O)N(C)C)cc(C(O)CNC(C)(C)C)c1` (stereo not drawn) [Bambuterol hydrochloride]: the fold induction at 50 µM in test [1] (setting [8]) was 1.3; in test [2] (setting [9]), 0.9; in test [3] (setting [10]), 1; in test [4] (setting [11]), 1.2; in test [5] (setting [12]), 1.1; in test [6] (setting [13]), 1.2. Moreover, the fold induction at 50 µM in test [7] (setting [14]) was 1.2.

With `CN(C)CCOC(C)(c1ccccc1)c1ccccn1` (stereo not drawn) [Doxylamine succinate], the fold induction at 50 µM in test [1] (50 μM final drug concentration, 384-well format, cutoff for positive-scoring molecules 3-fold increase, read-out: AK-based Prestwick Library Screening Results, E. coli (increase in extracellular AK activity)) amounted to 0.8; in test [2] (50 μM final drug concentration, 384-well format, cutoff for positive-scoring molecules 3-fold increase, read-out: AK-based Prestwick Library Screening Results, K. pneumoniae (increase in extracellular AK activity)), 0.6; in test [3] (50 μM final drug concentration, 384-well format, cutoff for positive-scoring molecules 3-fold increase, read-out: AK-based Prestwick Library Screening Results, A. baumannii (increase in extracellular AK activity)), 0.8; in test [4] (50 μM final drug concentration, 384-well format, cutoff for positive-scoring molecules 3-fold increase, read-out: AK-based Prestwick Library Screening Results, E. cloacae (increase in extracellular AK activity)), 1; in test [5] (50 μM final drug concentration, 384-well format, cutoff for positive-scoring molecules 3-fold increase, read-out: AK-based Prestwick Library Screening Results, E. faecium (increase in extracellular AK activity)), 0.9; in test [6] (50 μM final drug concentration, 384-well format, cutoff for positive-scoring molecules 3-fold increase, read-out: AK-based Prestwick Library Screening Results, S. aureus (increase in extracellular AK activity)), 0.7. Moreover, in test [7] (50 μM final drug concentration, 384-well format, cutoff for positive-scoring molecules 3-fold increase, read-out: AK-based Prestwick Library Screening Results, P. aeruginosa (increase in extracellular AK activity)), the fold induction at 50 µM turned out to be 0.8.

Take `OCCN(CCO)c1nc(N2CCCCC2)c2nc(N(CCO)CCO)nc(N3CCCCC3)c2n1` [Dipyridamole]: the fold induction at 50 µM in test [1] (setting [15]) turned out to be 1.3; in test [2] (setting [16]), 0.9; in test [3] (setting [17]), 1.2; in test [4] (setting [18]) it was 1.4; in test [5] (setting [19]), 0.9; in test [6] (setting [20]) it was 0.8. The fold induction at 50 µM in test [7] (setting [21]) is 1.1.

`CC(C)(C)NC[C@H](O)COc1cccc2c1CCCC2=O.Cl` [(−)-Levobunolol hydrochloride]: the “AK-based Prestwick Library Screening Results, E. coli (fold increase in extracellular AK activity)” value in test [1] (setting [22]) is 1.3. In addition, the “AK-based Prestwick Library Screening Results, K. pneumoniae (fold increase in extracellular AK activity)” value in test [2] (setting [22]) came out at 1.0. For the same molecule, in test [3] (setting [22]), the “AK-based Prestwick Library Screening Results, A. baumannii (fold increase in extracellular AK activity)” value was determined as 1.0. Further, in test [4] (setting [22]), the “AK-based Prestwick Library Screening Results, E. cloacae (fold increase in extracellular AK activity)” value amounted to 1.9. For the same molecule, in test [5] (setting [22]), the “AK-based Prestwick Library Screening Results, E. faecium (fold increase in extracellular AK activity)” value worked out at 1.0. Moreover, the “AK-based Prestwick Library Screening Results, S. aureus (fold increase in extracellular AK activity)” value in test [6] (setting [22]) came to 1.0. Further, in test [7] (setting [22]), the “AK-based Prestwick Library Screening Results, P. aeruginosa (fold increase in extracellular AK activity)” value was determined as 1.2.

On to `CC(C)c1cccc(C(C)C)c1O` [Propofol], for which the fold induction at 50 µM in test [1] (read-out: AK-based Prestwick Library Screening Results, E. coli (fold increase in extracellular AK activity)) was 1.3; in test [2] (read-out: AK-based Prestwick Library Screening Results, K. pneumoniae (fold increase in extracellular AK activity)) it was 1.1; in test [3] (read-out: AK-based Prestwick Library Screening Results, A. baumannii (fold increase in extracellular AK activity)), 1; in test [4] (read-out: AK-based Prestwick Library Screening Results, E. cloacae (fold increase in extracellular AK activity)) it was 1.7; in test [5] (read-out: AK-based Prestwick Library Screening Results, E. faecium (fold increase in extracellular AK activity)), 1; in test [6] (read-out: AK-based Prestwick Library Screening Results, S. aureus (fold increase in extracellular AK activity)), 1.2. In addition, the fold induction at 50 µM in test [7] (read-out: AK-based Prestwick Library Screening Results, P. aeruginosa (fold increase in extracellular AK activity)) was found to be 1.

Turning to `C[C@H]1CC[C@]2(NC1)O[C@H]1C[C@H]3[C@@H]4CC[C@H]5C[C@@H](O)CC[C@]5(C)[C@H]4CC[C@]3(C)[C@H]1[C@@H]2C` [Tomatidine], the fold induction at 50 µM in test [1] (planktonic E. coli, 50 μM final drug concentration, […], read-out: AK-based Prestwick Library Screening Results, E. coli (increase in extracellular AK activity)) came to 0.7; in test [2] (planktonic K. pneumoniae, 50 μM final drug concentration, […], read-out: AK-based Prestwick Library Screening Results, K. pneumoniae (increase in extracellular AK activity)), 0.6; in test [3] (planktonic A. baumannii, 50 μM final drug concentration, […], read-out: AK-based Prestwick Library Screening Results, A. baumannii (increase in extracellular AK activity)), 0.7; in test [4] (planktonic E. cloacae, 50 μM final drug concentration, […], read-out: AK-based Prestwick Library Screening Results, E. cloacae (increase in extracellular AK activity)) it was 1; in test [5] (planktonic E. faecium, 50 μM final drug concentration, […], read-out: AK-based Prestwick Library Screening Results, E. faecium (increase in extracellular AK activity)) it was 1.2; in test [6] (planktonic S. aureus, 50 μM final drug concentration, […], read-out: AK-based Prestwick Library Screening Results, S. aureus (increase in extracellular AK activity)), 0.5. The fold induction at 50 µM in test [7] (planktonic P. aeruginosa, 50 μM final drug concentration, […], read-out: AK-based Prestwick Library Screening Results, P. aeruginosa (increase in extracellular AK activity)) turned out to be 0.7.

Regarding `NCCCC[C@H](N[C@@H](CCc1ccccc1)C(=O)O)C(=O)N1CCC[C@H]1C(=O)O` [Lisinopril], the fold induction at 50 µM was 1.2 in test [1] (setting [15]); 1 in test [2] (setting [16]); 1.3 in test [3] (setting [17]); 1.5 in test [4] (setting [18]); 1 in test [5] (setting [19]); 4.3 in test [6] (setting [20]). Also, the fold induction at 50 µM in test [7] (setting [21]) came to 1.2.

For `Fc1ccc(C(c2ccc(F)cc2)N2CCN(C/C=C/c3ccccc3)CC2)cc1` [Flunarizine dihydrochloride], the fold induction at 50 µM in test [1] (setting [15]) was 1.7; in test [2] (setting [16]), 1.4; in test [3] (setting [17]), 2.6; in test [4] (setting [18]), 1.6; in test [5] (setting [19]) it was 1.3; in test [6] (setting [20]) it was 1.1. In addition, the fold induction at 50 µM in test [7] (setting [21]) came to 1.3.

`CC(C)N1CCN(c2ccc(OCC3COC(Cn4cncn4)(c4ccc(Cl)cc4Cl)O3)cc2)CC1` (stereo not drawn) [Terconazole]: the fold induction at 50 µM in test [1] (setting [8]) was 0.9; in test [2] (setting [9]), 0.7; in test [3] (setting [10]), 0.8; in test [4] (setting [11]) it was 0.9; in test [5] (setting [12]), 1; in test [6] (setting [13]), 0.6. Moreover, the fold induction at 50 µM in test [7] (setting [14]) is 0.8.
